Each structure is given as a SMILES string. Active and inactive are the calls of the source. The calls are words filed in the database; no cut-off is given here.

Experiment [1] concerns the target T1, Peroxisome proliferator-activated receptor alpha (Homo sapiens, UniProt Q07869).
T1 sequence (Q07869 whole entry): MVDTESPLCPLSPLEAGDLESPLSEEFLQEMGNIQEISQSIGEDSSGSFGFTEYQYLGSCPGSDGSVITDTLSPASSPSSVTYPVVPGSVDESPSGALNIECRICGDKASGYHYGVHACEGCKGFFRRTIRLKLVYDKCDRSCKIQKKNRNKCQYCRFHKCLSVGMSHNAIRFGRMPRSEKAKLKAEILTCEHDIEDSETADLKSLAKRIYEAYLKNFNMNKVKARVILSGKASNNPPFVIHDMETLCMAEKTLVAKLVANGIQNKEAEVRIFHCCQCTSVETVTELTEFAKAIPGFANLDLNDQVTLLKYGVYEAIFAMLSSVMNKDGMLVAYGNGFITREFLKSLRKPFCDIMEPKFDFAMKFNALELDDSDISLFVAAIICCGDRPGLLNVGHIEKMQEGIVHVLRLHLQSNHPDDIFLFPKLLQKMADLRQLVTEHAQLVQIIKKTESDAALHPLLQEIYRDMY
The experiment is described as follows: Agonist activity at PPARalpha (unknown origin) incubated for 3 to 16 hrs by pathhunter nuclear hormone receptor assay.

Experiment [2] has as its target T2, Peroxisome proliferator-activated receptor alpha (Homo sapiens) (UniProt Q07869).
T2 sequence (whole entry): T1 sequence (Q07869 whole entry)
As to the kind of experiment: Agonist activity at PPARalpha (unknown origin) incubated for 3 to 16 hrs by pathhunter nuclear hormone receptor assay relative to GW7647. Further details: concentration or dose not given beside the values.

Experiment [3] deals with T3, Peroxisome proliferator-activated receptor delta (Homo sapiens, UniProt Q03181).
T3 sequence (Q03181 whole entry): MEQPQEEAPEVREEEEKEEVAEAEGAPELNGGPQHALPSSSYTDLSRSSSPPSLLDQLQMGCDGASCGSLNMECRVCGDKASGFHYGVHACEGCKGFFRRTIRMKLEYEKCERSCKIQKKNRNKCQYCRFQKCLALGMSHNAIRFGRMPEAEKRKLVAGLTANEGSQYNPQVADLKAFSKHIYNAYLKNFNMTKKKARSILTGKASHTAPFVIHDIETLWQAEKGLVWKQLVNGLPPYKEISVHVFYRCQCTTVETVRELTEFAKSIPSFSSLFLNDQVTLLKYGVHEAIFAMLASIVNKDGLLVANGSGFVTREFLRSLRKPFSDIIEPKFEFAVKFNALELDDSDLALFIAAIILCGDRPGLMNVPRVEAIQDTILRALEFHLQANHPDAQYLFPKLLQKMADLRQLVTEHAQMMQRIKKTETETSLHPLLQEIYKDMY
The experiment is described as follows: Agonist activity at PPARbeta (unknown origin) incubated for 3 to 16 hrs by pathhunter nuclear hormone receptor assay.

Experiment [4] has as its system Rattus norvegicus. The experiment is described as follows: Hepatoprotective activity in Sprague-Dawley rat assessed as reduction in ANIT-stimulated total bilirubin level at 30 mg/kg, ig administered for 8 days by biochemical analysis. Format: functional, organism-based.
Experiment [5] has as its system Rattus norvegicus. The experiment is described as follows: Hepatoprotective activity in Sprague-Dawley rat assessed as reduction in ANIT-stimulated inflammatory score at 30 mg/kg, ig administered for 8 days by hematoxylin and eosin staining based mopho-metric analysis. The format is functional, organism-based.
Experiment [6] has as its target T4, Peroxisome proliferator-activated receptor delta (Homo sapiens) (UniProt Q03181).
T4 sequence (whole entry): T3 sequence (Q03181 whole entry)
As to the kind of experiment: Agonist activity at PPARbeta (unknown origin) incubated for 3 to 16 hrs by pathhunter nuclear hormone receptor assay relative to L-165,041.

In experiment [7] the test system is Rattus norvegicus. The experiment is described as follows: Hepatoprotective activity in Sprague-Dawley rat assessed as reduction in ANIT-stimulated fibrosis area at 30 mg/kg, ig administered for 8 days by hematoxylin and eosin staining based mopho-metric analysis. The format is functional, organism-based.
Experiment [8] addresses T5, Peroxisome proliferator-activated receptor gamma (Homo sapiens) (UniProt P37231).
T5 sequence (whole entry): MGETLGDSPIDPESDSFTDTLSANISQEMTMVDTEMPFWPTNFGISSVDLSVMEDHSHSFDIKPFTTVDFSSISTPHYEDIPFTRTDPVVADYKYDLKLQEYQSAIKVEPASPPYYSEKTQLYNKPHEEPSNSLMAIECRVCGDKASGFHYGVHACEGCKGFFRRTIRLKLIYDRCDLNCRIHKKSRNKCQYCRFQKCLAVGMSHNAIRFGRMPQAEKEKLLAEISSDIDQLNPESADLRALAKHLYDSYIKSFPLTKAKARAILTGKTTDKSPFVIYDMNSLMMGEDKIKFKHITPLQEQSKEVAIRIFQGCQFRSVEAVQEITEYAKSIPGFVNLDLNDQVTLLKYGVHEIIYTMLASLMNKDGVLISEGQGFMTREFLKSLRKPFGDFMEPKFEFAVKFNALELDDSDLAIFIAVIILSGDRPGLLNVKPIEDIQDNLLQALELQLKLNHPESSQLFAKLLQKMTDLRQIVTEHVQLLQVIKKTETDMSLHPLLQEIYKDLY
As to the kind of experiment: Agonist activity at PPARgamma (unknown origin) incubated for 3 to 16 hrs by pathhunter nuclear hormone receptor assay relative to Troglitazone.

Experiment [9] deals with Rattus norvegicus. The experiment is described as follows: Hepatoprotective activity in Sprague-Dawley rat assessed as reduction in ANIT-stimulated total bilirubin level at 20 mg/kg, ig administered for 8 days by biochemical analysis. Format: functional, organism-based.
Experiment [10] deals with Rattus norvegicus. The experiment is described as follows: Hepatoprotective activity in Sprague-Dawley rat assessed as reduction in ANIT-stimulated inflammatory score at 20 mg/kg, ig administered for 8 days by hematoxylin and eosin staining based mopho-metric analysis. Format: functional, organism-based.
The subject of experiment [11] is Rattus norvegicus. As to the kind of experiment: Hepatoprotective activity in Sprague-Dawley rat assessed as reduction in ANIT-stimulated fibrosis area at 20 mg/kg, ig administered for 8 days by hematoxylin and eosin staining based mopho-metric analysis. The format is functional, organism-based.
The target of experiment [12] is T2, Peroxisome proliferator-activated receptor alpha (Homo sapiens). The experiment is described as follows: Potency index, ratio of EC50 of GFT505 to ratio of EC50 of compound for agonist activity at PPARalpha (unknown origin) incubated for 3 to 16 hrs by pathhunter nuclear hormone receptor assay.
Experiment [13] has as its target PPAR delta/gamma (Homo sapiens) (UniProt P37231+Q03181). The experiment is described as follows: Selectivity index, ratio of EC50 of PPARgamma (unknown origin) to EC50 of PPARdelta (unknown origin). The format is protein assay.
The species named for experiment [14] is Homo sapiens. The experiment is described as follows: Selectivity index, ratio of EC50 of PPARgamma (unknown origin) to EC50 of PPARalpha (unknown origin).
In experiment [15] the target is T6, Peroxisome proliferator-activated receptor gamma (Homo sapiens, UniProt P37231).
T6 sequence (P37231 whole entry): T5 sequence (whole entry)
As to the kind of experiment: Agonist activity at PPARgamma (unknown origin) incubated for 3 to 16 hrs by pathhunter nuclear hormone receptor assay.

One may read the EC50 as the concentration giving half of the maximal effect. Regarding `Cc1cc(Cc2noc3c2CCOc2cc(Br)ccc2-3)cc(C)c1OC(C)(C)C(=O)O`, in experiment [1], the midpoint of the response, the EC50, lay at 8970 nM. This molecule also yielded an Activity in experiment [2] of 50%.
On to `CCCc1c(OCCCOc2ccc(OCC(=O)O)cc2)ccc(C(C)=O)c1O`, for which, in experiment [3], the EC50 worked out at 61 nM.
As for `Cc1cc(Cc2cnoc2-c2ccc(Br)cc2)cc(C)c1OC(C)(C)C(=O)O`, the EC50 in experiment [1] amounted to 2820 nM. This molecule also yielded an Activity in experiment [2] of 78%.
As for `CSc1ccc(C(=O)/C=C/c2cc(C)c(OC(C)(C)C(=O)O)c(C)c2)cc1` [ELAFIBRANOR], in experiment [4], the result was Active. The outcome in experiment [5] and in experiment [7] was inactive. The Activity in [6] is 72%; in [2], 117%; in experiment [8], 93%. A half-maximal effect in experiment [1] (EC50) was put at 225 nM.
Regarding `Cc1cc(-c2cc(-c3ccc(Br)cc3)on2)cc(C)c1OC(C)(C)C(=O)O`, in experiment [1], the EC50 is > 10000 nM. This molecule came in with an Activity in [2] of 5%.
In [1], `Cc1cc(Cc2cc(-c3ccccc3)on2)cc(C)c1OC(C)(C)C(=O)O` displayed an EC50 of 385 nM. For the same molecule, the Activity in experiment [2] was 85%.
Consider `CC[C@H]1[C@@H](O)[C@@H]2[C@H](CC[C@]3(C)[C@@H]([C@H](C)CCC(=O)O)CC[C@@H]23)[C@@]2(C)CC[C@@H](O)C[C@@H]12`, for which, in experiment [9], the outcome was Active. In addition, the result in experiment [10] and in experiment [11] was inactive.
The molecule `Cc1cc(Cc2onc3c2CCOc2cc(Br)ccc2-3)cc(C)c1OC(C)(C)C(=O)O` yielded an EC50 in experiment [1] of 3420 nM. Besides, the Activity in [2] stood at 85%.
`Cc1cc(CCc2cc(-c3ccc(Br)cc3)on2)cc(C)c1OC(C)(C)C(=O)O`: the Ratio EC50 in experiment [12] was 8 to 28; in experiment [13], 91; in [14], 17. In addition, the values for the Activity in [6], in experiment [2] and in [8] were 73%, 134% and 78%, respectively. The EC50 in experiment [15] stood at 457 nM; in experiment [1], 27 nM; in experiment [3], 5 nM.

The values are drawn from ChEMBL document CHEMBL4304783, “Discovery of a Novel Selective Dual Peroxisome Proliferator-Activated Receptor α/δ Agonist for the Treatment of Primary Biliary Cirrhosis” (ACS Med Chem Lett, 2019).
